Laboratory results published in patent publication US20240384268A1, “Oligonucleotides” (Hudson Institute of Medical Research, priority 2021, published 2024).
In the oligonucleotide strings, read from the 5' end, every base follows the letter of its sugar. An asterisk marks phosphorothioate; unmarked linkages are phosphodiester. Other units and linkages are bracketed, terminal groups are in braces. A string of capitals states the bases alone. d = 2'-deoxy (DNA); m = 2'-O-methyl

Molecular target: T1, TLR8 (Homo sapiens, UniProt Q9NR97)
T1 sequence (Q9NR97 27-1041): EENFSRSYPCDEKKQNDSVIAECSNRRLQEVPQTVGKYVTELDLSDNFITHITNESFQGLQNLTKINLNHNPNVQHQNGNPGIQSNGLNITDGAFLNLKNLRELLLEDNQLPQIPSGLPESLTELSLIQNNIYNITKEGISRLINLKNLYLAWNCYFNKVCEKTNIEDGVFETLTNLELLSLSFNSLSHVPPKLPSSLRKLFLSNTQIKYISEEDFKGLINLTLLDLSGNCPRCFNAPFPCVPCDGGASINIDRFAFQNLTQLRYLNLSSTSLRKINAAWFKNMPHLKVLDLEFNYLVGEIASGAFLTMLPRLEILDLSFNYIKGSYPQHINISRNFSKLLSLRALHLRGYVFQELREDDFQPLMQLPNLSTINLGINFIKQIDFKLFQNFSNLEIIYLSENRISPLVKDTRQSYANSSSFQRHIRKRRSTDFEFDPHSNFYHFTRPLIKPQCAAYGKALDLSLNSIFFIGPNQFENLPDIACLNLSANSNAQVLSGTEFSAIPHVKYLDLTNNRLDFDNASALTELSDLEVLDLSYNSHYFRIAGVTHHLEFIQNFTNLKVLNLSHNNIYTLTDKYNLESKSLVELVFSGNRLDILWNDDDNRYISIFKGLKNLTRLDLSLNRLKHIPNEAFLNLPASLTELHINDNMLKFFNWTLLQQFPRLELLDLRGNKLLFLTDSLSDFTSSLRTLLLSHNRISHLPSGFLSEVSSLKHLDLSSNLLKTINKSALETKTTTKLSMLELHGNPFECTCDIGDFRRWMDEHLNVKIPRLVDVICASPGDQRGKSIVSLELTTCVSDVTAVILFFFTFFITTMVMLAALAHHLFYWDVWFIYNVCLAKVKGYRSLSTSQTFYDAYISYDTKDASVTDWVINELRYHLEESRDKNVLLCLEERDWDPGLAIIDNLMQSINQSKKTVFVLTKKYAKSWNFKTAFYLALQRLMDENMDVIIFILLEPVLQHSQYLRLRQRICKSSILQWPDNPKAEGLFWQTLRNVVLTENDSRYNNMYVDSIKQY
Experiment: HEK-TLR8 NF-κB-luciferase reporter, R848 or Motolimod stimulation (potentiation or inhibition)
Type: cell-based
Set-up: expressed in transfected cells; host or cells: 293XLhTLR8 (HEK293)
Conditions: HEK-TLR8; 500 nM ASO; fold increase relative to R848 without ASO (Alharbi et al., 2020)

**Q.** How did the “TLR8-500 nM: averaged NF-κB-Luciferase relative to R848” value turn out when “mU*mG*mU*mU*mU*C*C*C*C*G*G*A*G*A*G*mC*mA*mA*mU*mG (UGUUUCCCCGGAGAGCAAUG; antisense; sugars from the 5' end m5 d10 m5, all phosphorothioate, methylation of C not given here) [[LINC-PINT]501 KL]” was run?
**A.** 2.04 fold

**Q.** With “mU*mU*mA*mA*mA*T*A*A*T*C*T*A*G*T*T*mU*mG*mA*mA*mG (UUAAATAATCTAGTTUGAAG; sugars from the 5' end m5 d10 m5, all phosphorothioate, methylation of C not given here) [[CDKN2B-AS1]132]” as the substance, how does the “TLR8-500 nM: averaged NF-κB-Luciferase relative to R848” value read?
**A.** 6.43 fold

**Q.** How did the “TLR8-500 nM: averaged NF-κB-Luciferase relative to R848” value turn out when “mU*mU*mA*mG*mC*T*C*C*T*T*G*C*C*T*C*mG*mU*mU*mC*mC (mU*mU*mA*mG*mC*dT*dC*dC*dT*dT*dG*dC*dC*dT*dC*mG*mU*mU*mC*mC; antisense) [[LINC-PINT] 1222]” was run?
**A.** 8.41 fold

**Q.** Which “TLR8-500 nM: averaged NF-κB-Luciferase relative to R848” value does the source give for “mU*mU*mC*mU*mC*T*C*T*G*G*T*C*C*C*A*mU*mC*mC*mC*mU (mU*mU*mC*mU*mC*dT*dC*dT*dG*dG*dT*dC*dC*dC*dA*mU*mC*mC*mC*mU; antisense) [[LINC-PINT]111]” here?
**A.** 9.51 fold

**Q.** Which “TLR8-500 nM: averaged NF-κB-Luciferase relative to R848” value does the source give for “mU*mU*mG*mG*mC*C*T*G*T*G*G*A*T*G*C*mU*mU*mU*mG*mU (mU*mU*mG*mG*mC*dC*dT*dG*dT*dG*dG*dA*dT*dG*dC*mU*mU*mU*mG*mU) [[LINC-PINT]2673.1]” here?
**A.** 0.94 fold

**Q.** For “mU*mU*mG*mU*mG*A*A*A*A*G*A*T*T*A*T*mC*mU*mU*mC*mU (mU*mU*mG*mU*mG*dA*dA*dA*dA*dG*dA*dT*dT*dA*dT*mC*mU*mU*mC*mU) [[CDKN2B-AS1]2138]”, which “TLR8-500 nM: averaged NF-κB-Luciferase relative to R848” value is on record?
**A.** 1.94 fold

**Q.** Which “TLR8-500 nM: averaged NF-κB-Luciferase relative to R848” value does the source give for “mU*mU*mU*mG*mA*A*A*T*T*C*A*G*A*A*G*mA*mU*mU*mU*mG (mU*mU*mU*mG*mA*dA*dA*dT*dT*dC*dA*dG*dA*dA*dG*mA*mU*mU*mU*mG) [[LINC PINT|2690]” here?
**A.** 4.93 fold
